US12371404B2, “Fused bicyclic alkylene linked imidodicarbonimidic diamides, methods for synthesis, and uses in therapy” (NovaTarg, Inc., priority 2016, dated 2025)
Structures can show the parent of a compound that is named as a salt. Where two headings read alike, the source gives them in different places.

Assays:
[1] = target: T1, human OCT1 (Homo sapiens, UniProt O15245); assay: Oxygen consumption rate (OCR) assay, HEK293 cells transfected with OCT1; details: HEK293 cells stably transfected with human OCT1; MitoXpress Xtra, 2 hours
T1 sequence (O15245 1-554): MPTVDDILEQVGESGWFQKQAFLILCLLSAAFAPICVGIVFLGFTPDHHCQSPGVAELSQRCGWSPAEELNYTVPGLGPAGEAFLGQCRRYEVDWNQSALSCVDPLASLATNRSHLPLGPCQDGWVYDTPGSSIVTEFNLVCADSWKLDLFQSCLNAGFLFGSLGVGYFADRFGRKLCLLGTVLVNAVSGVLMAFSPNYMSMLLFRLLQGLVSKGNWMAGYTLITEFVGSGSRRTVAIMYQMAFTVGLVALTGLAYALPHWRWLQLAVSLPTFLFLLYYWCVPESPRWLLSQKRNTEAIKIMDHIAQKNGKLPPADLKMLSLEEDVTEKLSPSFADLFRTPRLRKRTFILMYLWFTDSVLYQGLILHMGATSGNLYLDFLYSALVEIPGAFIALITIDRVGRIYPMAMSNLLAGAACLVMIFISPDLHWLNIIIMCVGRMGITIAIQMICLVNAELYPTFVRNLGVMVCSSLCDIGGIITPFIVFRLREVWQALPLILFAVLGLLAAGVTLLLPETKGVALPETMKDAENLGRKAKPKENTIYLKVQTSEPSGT
Description: (§1) Diabetologia 2011, 54 (12): 3101-3110, each incorporated by reference with regard to such testing. The compounds of the present invention are similarly tested in an oxygen consumption rate (OCR) assay to evaluate the functional activity of test compounds in cells.
(§2) In brief, the assay uses HEK293 cells stably transfected with the human OCT1, OCT2, OCT3, PMAT, or MATE1 transporters to determine a compound's relative transporter selectivity and its effect on the rate of oxygen consumption relative to control (Neo) cells. The MitoXpress Xtra oxygen-sensitive fluorophore is used to monitor oxygen consumption rates in the presence and absence of compound treatments. The analogs were tested at eight (8) different concentrations in triplicate to determine a relative IC50 value.
(§3) A summary description of the protocol is as follows:
HEK293 cells transformed with human organic cation transporters were plated in collagen coated, 96-well black-walled microclear plates (Greiner-Bio 1, #655956) at 60,000 cells per well in growth medium (DMEM (LG), 10% FBS, 400 μg/ml G418). Cells were incubated overnight to allow attachment. The outer columns (1 and 12) are not seeded with cells, as controls. The next day, plating medium was removed and replaced with 150 μL of assay medium (DMEM/F12 (PRF), 5% FBS, antibiotics) containing compound dilutions. A 3-fold serial dilution was prepared in the assay medium and transferred to the empty wells. The outer columns and column 11 received 150 μL of assay medium only. […] Dual read time-resolved fluorescence (BMG FluoStar Galaxy reader) was measured over 2 hours with measurements taken every 2 minutes. […] Background TRF values from A1-D1 were subtracted from all readings. A ratiometric analysis was performed to determine changes in the Lifetime fluorescence signal:Lifetime (μs) [T]=(D2−D1)/ln(W1/W2), where D is delay; W is fluorescence window value at each time point. Lifetime slopes were calculated using each Lifetime measurement over time. IC50 values were determined by plotting lifetime slope values vs. compound concentration.

[2] = system: control (Neo) cells; assay: Oxygen consumption rate (OCR) assay, control (Neo) HEK293 cells; type: cell-based; details: Homo sapiens, read-out: Oxygen Consumption Rate (OCR) IC50, Neo
Description: as §1, §2, §3
(§4) HEK293 cells transformed with human organic cation transporters were plated in collagen coated, 96-well black-walled microclear plates (Greiner-Bio 1, #655956) at 60,000 cells per well in growth medium (DMEM (LG), 10% FBS, 400 μg/ml G418). Cells were incubated overnight to allow attachment. The outer columns (1 and 12) are not seeded with cells, as controls. The next day, plating medium was removed and replaced with 150 μL of assay medium (DMEM/F12 (PRF), 5% FBS, antibiotics) containing compound dilutions. A 3-fold serial dilution was prepared in the assay medium and transferred to the empty wells. The outer columns and column 11 received 150 μL of assay medium only. 10 μL of MitoXpress Xtra reagent was added to each test well, and 100 μL of pre-warmed mineral oil was overlayed in each well to create a seal. Dual read time-resolved fluorescence (BMG FluoStar Galaxy reader) was measured over 2 hours with measurements taken every 2 minutes. Excitation is 340 nm, Emission is 650 nm. For lifetime analysis, two measurements per well were taken: 1) delay of 30 μs, with a window of 30 μs; and 2) delay of 70 μs with a window of 30 μs. Background TRF values from A1-D1 were subtracted from all readings. A ratiometric analysis was performed to determine changes in the Lifetime fluorescence signal:Lifetime (μs) [T]=(D2−D1)/ln(W1/W2), where D is delay; W is fluorescence window value at each time point. Lifetime slopes were calculated using each Lifetime measurement over time. IC50 values were determined by plotting lifetime slope values vs. compound concentration.

[3] = target: T2, human MATE1 (Homo sapiens, UniProt Q96FL8); assay: Oxygen consumption rate (OCR) assay, HEK293 cells transfected with MATE1; details: for inhibition at 1000 µM: HEK293, read-out: Oxygen Consumption Rate (OCR), MATE 1, % Inhibition at 1000 μM test concentration
T2 sequence (Q96FL8 1-570): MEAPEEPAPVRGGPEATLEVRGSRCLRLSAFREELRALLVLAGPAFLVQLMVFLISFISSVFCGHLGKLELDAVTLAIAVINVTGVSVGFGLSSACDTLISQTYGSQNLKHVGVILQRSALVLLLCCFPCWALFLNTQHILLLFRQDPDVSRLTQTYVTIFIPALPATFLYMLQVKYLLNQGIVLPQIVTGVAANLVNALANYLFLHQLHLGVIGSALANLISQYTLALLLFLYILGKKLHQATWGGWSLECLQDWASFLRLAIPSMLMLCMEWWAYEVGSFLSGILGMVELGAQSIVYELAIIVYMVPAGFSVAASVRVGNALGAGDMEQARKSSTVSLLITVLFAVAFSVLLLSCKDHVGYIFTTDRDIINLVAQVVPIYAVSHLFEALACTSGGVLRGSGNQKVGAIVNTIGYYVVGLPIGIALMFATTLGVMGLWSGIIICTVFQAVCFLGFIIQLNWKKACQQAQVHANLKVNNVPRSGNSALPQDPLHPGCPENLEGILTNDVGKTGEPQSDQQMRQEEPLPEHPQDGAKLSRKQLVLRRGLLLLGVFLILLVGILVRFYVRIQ
Description: The compounds of the present invention are similarly tested in an oxygen consumption rate (OCR) assay to evaluate the functional activity of test compounds in cells.
as §2, §3
as §4, with “Cells” for “HEK293 cells transformed with human organic cation transporters were plated in collagen coated, 96-well black-walled microclear plates (Greiner-Bio 1, #655956) at 60,000 cells per well in growth medium (DMEM (LG), 10% FBS, 400 μg/ml G418). Cells”

[4] = target: T3, human PMAT (Homo sapiens, UniProt Q7RTT9); assay: Oxygen consumption rate (OCR) assay, HEK293 cells transfected with PMAT; type: cell-based; details: for inhibition at 10 µM: HEK293 cells with human PMAT
T3 construct: expressed in transfected cells; host or cells: HEK293
T3 sequence (Q7RTT9 1-530): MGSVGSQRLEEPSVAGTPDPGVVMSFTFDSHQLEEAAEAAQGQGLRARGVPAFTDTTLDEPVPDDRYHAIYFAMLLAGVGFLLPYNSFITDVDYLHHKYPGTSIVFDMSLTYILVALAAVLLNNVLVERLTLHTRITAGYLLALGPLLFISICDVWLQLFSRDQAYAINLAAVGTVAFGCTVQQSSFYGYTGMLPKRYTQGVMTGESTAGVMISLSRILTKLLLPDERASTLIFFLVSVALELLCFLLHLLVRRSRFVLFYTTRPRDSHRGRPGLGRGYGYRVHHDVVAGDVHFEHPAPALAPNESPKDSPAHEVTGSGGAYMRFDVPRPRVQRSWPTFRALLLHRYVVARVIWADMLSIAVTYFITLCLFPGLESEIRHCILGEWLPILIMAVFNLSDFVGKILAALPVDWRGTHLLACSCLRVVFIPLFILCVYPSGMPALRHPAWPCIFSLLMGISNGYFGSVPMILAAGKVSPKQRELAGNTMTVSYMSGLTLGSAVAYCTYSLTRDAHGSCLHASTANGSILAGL
Description: as §1, §2, §3, §4

[5] = control (Neo) HEK293 cells, MitoXpress Xtra, 2 hours
[6] = HEK293 cells stably transfected with human PMAT, MitoXpress Xtra, 2 hours, read-out: Oxygen Consumption Rate (OCR) IC50, PMAT

Row | SMILES | Oxygen Consumption Rate (OCR) IC50, OCT 1 [1] [µM] | IC50 ([2]; HEK293, 2 h) [µM] | IC50 [3] [µM] | IC50 [4] [µM] | IC50 [2, 5] [µM] | inhibition at 10 µM [4] [%] | inhibition at 1000 µM [3] [%] | IC50 [4, 6] [µM]
1 | Cl.N=C(N)NC(=N)NCCc1c[nH]c2ccc(F)cc12 [Ex 2, 1-[2-(5-fluoro-1H-indol-3-yl)ethyl]imidodicarbonimide diamide hydrochloride] | >1000 | > 1000 | > 1000 | 5 | – | – | – | –
2 | N=C(N)NC(=N)NCCc1c[nH]c2cccc(Cl)c12 [Ex 34, 1-[2-(4-chloro-1H-indol-3-yl)ethyl]imidodicarbonimide diamide, trifluoroacetic acid salt] | 3 | 184 | 19 | 2 | – | – | – | –
3 | N=C(N)NC(=N)NCCc1c[nH]c2ccncc12 [Ex 22, 1-(2-(1H-pyrrolo[3,2-c]pyridin-3-yl)ethyl)imidodicarbonimide diamide hydrochloride] | – | – | 2980 | – | 3240 | -7 | – | –
4 | Cc1[nH]c2ccccc2c1CCNC(=N)NC(=N)N [Ex 1, 1-[2-(2-methyl-1H-indol-3-yl)ethyl]imidodicarbonimide diamide] | 1267 | > 5000 | – | 3 | – | – | 30 | –
5 | Cc1[nH]c2cc(F)ccc2c1CCNC(=N)NC(=N)N [Ex 31, 1-[2-(6-fluoro-2-methyl-1H-indol-3-yl)ethyl]imidodicarbonimide diamide, trifluoroacetic acid salt] | – | – | 13400 | – | 4870 | 35 | – | –
6 | N=C(N)NC(=N)NCCc1c[nH]c2c(F)c(F)c(F)c(F)c12 [Ex 42, 1-[2-(4,5,6,7-tetrafluoro-1H-indol-3-yl)ethyl]imidodicarbonimide diamide, trifluoroacetic acid salt] | – | 129 | 183 | 5 | – | – | – | –
7 | CC(Cc1cn(C)c2ccc(F)cc12)NC(=N)NC(=N)N (stereo not drawn) [Ex 6, 1-[1-(5-fluoro-1-methyl-1H-indol-3-yl)propan-2-yl]imidodicarbonimide Diamide] | – | – | – | – | > 10000 | 8 | 18 | –
8 | Cn1cc(CCNC(=N)NC(=N)N)c2cc(F)ccc21 [Ex 4, 1-[2-(5-fluoro-1-methyl-1H-indol-3-yl)ethyl]imidodicarbonimide diamide] | – | – | 1570 | – | 678 | 41 | – | –
9 | CC(Cc1c[nH]c2ccc(F)cc12)NC(=N)NC(=N)N (stereo not drawn) [Ex 5, 1-[1-(5-fluoro-1H-indol-3-yl)propan-2-yl]imidodicarbonimide diamide] | – | – | – | – | 1880 | 12 | 65 | –
10 | CN(C)C(=N)NC(=N)NCCc1c[nH]c2ccc(C(F)(F)F)cc12 [Ex 32, 3-(2-(5-trifluoromethyl-1H-indol-3-yl)ethyl)-1,1-dimethyl imidodicarbonimide diamide hydrochloride] | – | – | 681 | – | 397 | 10 | – | –
11 | N=C(N)NC(=N)NCc1c[nH]c2ccccc12 [Ex 55, 1-[(1H-indol-3-yl)methyl]imidodicarbonimide diamide, trifluoroacetic acid salt] | – | – | 1650 | – | 1400 | 10 | – | –
12 | N=C(N)NC(=N)NCCc1c[nH]c2nc(F)ccc12 [Ex 45, 1-(2-(6-fluoro-1H-pyrrolo[2,3-b]pyridin-3-yl)ethyl)imidodicarbonimide diamide, trifluoroacetic acid salt] | – | – | > 3000 | – | 11400 | – | – | 14
13 | N=C(N)NC(=N)NCCc1c[nH]c2ncc(F)cc12 [Ex 43, 1-(2-(5-fluoro-1H-pyrrolo[2,3-b]pyridin-3-yl)ethyl)imidodicarbonimide diamide, trifluoroacetic acid salt] | – | – | 2230 | – | 11000 | – | – | 23
14 | N=C(N)NC(=N)NCCc1c[nH]c2cc(Cl)ccc12 [Ex 35, 1-[2-(6-chloro-1H-indol-3-yl)ethyl]imidodicarbonimide diamide, trifluoroacetic acid salt] | – | – | 20 | – | 205 | 68 | – | –
15 | N=C(N)NC(=N)NCCc1c[nH]c2ccc(Cl)cc12 [Ex 9, 1-[2-(5-chloro-1H-indol-3-yl)ethyl]imidodicarbonimide diamide, trifluoroacetic acid salt] | – | – | 171 | – | 70 | 53 | – | –
16 | N=C(N)NC(=N)NCCc1c[nH]c2ccccc12 [Ex 17, 1-[2-(1H-indol-3-yl)ethyl]imidodicarbonimide diamide hydrochloride] | – | – | 4840 | – | > 5000 | 54 | – | –
